From PubChem BioAssay AID330 (DTP/NCI, 2004)
Values joined by “and” are separate entries in the source; they are usually repeats but may differ in a detail not shown here. Identical values can stand only once. Toxic doses and inconclusive results are not listed.

System: P388 leukemia ip, CD2F1 mice, survival T/C
Assay: NCI In Vivo Anticancer Drug Screen. Data for tumor model P388 Leukemia (intraperitoneal) in CD2F1 (CDF1) mice
Settings: endpoint: median survival time, higher = longer survival
Method in brief: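 Mice carrying the transplanted tumor received test compound or vehicle. Survival was recorded in each group, and the value is the treated-group measurement divided by that of the vehicle-treated control group.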

[1] = dose: 15.0 mg/kg/injection, schedule: Q01DX005 (ip), vehicle: saline
[2] = dose: 30.0 mg/kg/injection, schedule: Q01DX005 (ip), vehicle: saline
[3] = dose: 60.0 mg/kg/injection, schedule: Q01DX005 (ip), vehicle: saline
[4] = dose: 100.0 mg/kg/injection, schedule: Q01DX009 (ip), vehicle: Klucel (hydroxypropylcellulose) (HPC)
[5] = dose: 200.0 mg/kg/injection, schedule: Q01DX009 (ip), vehicle: Klucel (hydroxypropylcellulose) (HPC)
[6] = dose: 50.0 mg/kg/injection, schedule: Q01DX009 (ip), vehicle: saline with Tween-80
[7] = dose: 100.0 mg/kg/injection, schedule: Q01DX009 (ip), vehicle: saline with Tween-80
[8] = dose: 200.0 mg/kg/injection, schedule: Q01DX009 (ip), vehicle: saline with Tween-80
[9] = dose: 50.0 mg/kg/injection, schedule: Q01DX005 (ip), vehicle: saline with Tween-80
[10] = dose: 100.0 mg/kg/injection, schedule: Q01DX005 (ip), vehicle: saline with Tween-80
[11] = dose: 200.0 mg/kg/injection, schedule: Q01DX005 (ip), vehicle: saline with Tween-80
[12] = dose: 50.0 mg/kg/injection, schedule: Q01DX009 (ip), vehicle: saline
[13] = dose: 100.0 mg/kg/injection, schedule: Q01DX009 (ip), vehicle: saline
[14] = dose: 200.0 mg/kg/injection, schedule: Q01DX009 (ip), vehicle: saline
[15] = dose: 25.0 mg/kg/injection, schedule: Q01DX009 (ip), vehicle: saline with Tween-80
[16] = dose: 60.0 mg/kg/injection, schedule: Q01DX005 (ip), vehicle: saline with Tween-80
[17] = dose: 120.0 mg/kg/injection, schedule: Q01DX005 (ip), vehicle: saline with Tween-80
[18] = dose: 60.0 mg/kg/injection, schedule: Q01DX005 (ip), vehicle: Klucel (hydroxypropylcellulose) (HPC)
[19] = dose: 120.0 mg/kg/injection, schedule: Q01DX005 (ip), vehicle: Klucel (hydroxypropylcellulose) (HPC)

With `CN1CC=C(c2ccccc2)C(O)C1` (configuration not stated) the T/C (dose: 12.5 mg/kg/injection, schedule: Q04DX002 (ip), vehicle: saline) was 116 % of control, the T/C [1] was 100 % of control and the T/C (dose: 25.0 mg/kg/injection, schedule: Q04DX002 (ip), vehicle: saline) was 101 % of control. For the same compound, the T/C [2] was 99 % of control, the T/C (dose: 50.0 mg/kg/injection, schedule: Q04DX002 (ip), vehicle: saline) was 101 % of control and the T/C [3] was 117 % of control and 97 % of control.
With `Cn1c(=O)n(-c2ccccc2)c(=O)c2ccccc21` the T/C [4] was 100 % of control, the T/C [5] was 110 % of control and the T/C (dose: 400.0 mg/kg/injection, schedule: Q01DX009 (ip), vehicle: Klucel (hydroxypropylcellulose) (HPC)) was 109 % of control.
`CC(C)(C)NCC(O)c1ccc(O)c(NC=O)c1` (configuration not stated) was tested, and the T/C [6] was 110 % of control, the T/C [7] was 100 % of control and the T/C [8] was 102 % of control.
`CCC1OCC(C(Cl)CCl)O1` (configuration not stated) was tested, and the T/C [9] was 102 % of control, the T/C [10] was 111 % of control and the T/C (dose: 132.0 mg/kg/injection, schedule: Q01DX009 (ip), vehicle: saline with Tween-80) was 100 % of control. For the same compound, the T/C [11] was 103 % of control, the T/C [8] was 118 % of control and the T/C (dose: 300.0 mg/kg/injection, schedule: Q01DX009 (ip), vehicle: saline with Tween-80) was 118 % of control.
In the case of `NC1=NC(c2ccc(O)cc2O)c2[nH]cnc2N1` (configuration not stated), the T/C [12] is reported as 99 % of control, the T/C [13] is reported as 100 % of control and the T/C [14] is reported as 97 % of control.
`Nc1ncnc2c1ncn2CC(O)CN(CCO)CCO` (configuration not stated) was tested, and the T/C [3] was 97 % of control, the T/C (dose: 120.0 mg/kg/injection, schedule: Q01DX005 (ip), vehicle: saline) was 95 % of control and the T/C (dose: 240.0 mg/kg/injection, schedule: Q01DX005 (ip), vehicle: saline) was 96 % of control.
For `CN1C(=O)C2N(C(=O)C1(C)S)c1ccccc1C2(C)C` (configuration not stated), the T/C [12] was 102 % of control, the T/C [13] was 93 % of control and the T/C [14] was 101 % of control.
With `CCOC(=O)c1cnn(CC(OCC)OCC)c1N` the T/C (dose: 100.0 mg/kg/injection, schedule: Q01DX001 (ip), vehicle: saline with Tween-80) was 102 % of control, the T/C (dose: 200.0 mg/kg/injection, schedule: Q01DX001 (ip), vehicle: saline with Tween-80) was 108 % of control and the T/C (dose: 400.0 mg/kg/injection, schedule: Q01DX001 (ip), vehicle: saline with Tween-80) was 109 % of control.
`CCN(CC)CCCC(C)NCC(O)c1cc(-c2ccc(Cl)cc2)nc2ccccc12` (configuration not stated) was tested, and the T/C [9] was 107 % of control and the T/C [10] was 112 % of control.
With `O=C(Nc1ccc(C(=O)O)cc1)Oc1ccc(N(CCCl)CCCl)cc1` the T/C [15] was 209 % of control, the T/C [6] was 159 % of control and the T/C (dose: 66.0 mg/kg/injection, schedule: Q04DX003 (ip), vehicle: saline with Tween-80) was 200 % of control. The T/C (dose: 100.0 mg/kg/injection, schedule: Q04DX003 (ip), vehicle: saline with Tween-80) was 181 % of control and 200 % of control.
In the case of `O=C(O)CC(CSCP(=O)(O)O)C(=O)O` (configuration not stated), the T/C (dose: 50.0 mg/kg/injection, schedule: Q01DX005 (ip), vehicle: suspension in saline) is reported as 102 % of control, the T/C (dose: 100.0 mg/kg/injection, schedule: Q01DX005 (ip), vehicle: suspension in saline) is reported as 91 % of control and the T/C (dose: 200.0 mg/kg/injection, schedule: Q01DX005 (ip), vehicle: suspension in saline) is reported as 89 % of control.
For `CC(=O)O[C@@]1(C)OC(=O)[C@@]2(c3ccccc3)N(C(C)=O)C(C)=C(C#N)[C@@]12C#N`, the T/C [9] was 100 % of control, the T/C [10] was 106 % of control and the T/C [11] was 97 % of control.
With `O=C1CCC(Cc2ccccc2)CN1` (configuration not stated) the T/C [16] was 97 % of control, the T/C [17] was 101 % of control and the T/C (dose: 240.0 mg/kg/injection, schedule: Q01DX005 (ip), vehicle: saline with Tween-80) was 97 % of control.
With `Cn1c2nc(-[n+]3ccc4ccccc4c3)nc-2c([O-])n(C)c1=O` the T/C (dose: 100.0 mg/kg/injection, schedule: Q04DX003 (ip), vehicle: saline) was 100 % of control, the T/C (dose: 200.0 mg/kg/injection, schedule: Q04DX003 (ip), vehicle: saline) was 99 % of control and the T/C (dose: 400.0 mg/kg/injection, schedule: Q04DX003 (ip), vehicle: saline) was 100 % of control.
For `CCCCOc1ccc(C(=S)NC(=O)Nc2ccccc2)cc1`, the T/C (dose: 3.0 mg/kg/injection, schedule: Q01DX009 (ip), vehicle: saline with Tween-80) was 123 % of control, the T/C (dose: 6.0 mg/kg/injection, schedule: Q01DX009 (ip), vehicle: saline with Tween-80) was 103 % of control and the T/C (dose: 12.0 mg/kg/injection, schedule: Q01DX009 (ip), vehicle: saline with Tween-80) was 98 % of control.
In the case of `C[n+]1cccc2c1-c1c(ccc[n+]1C)C2`, the T/C (dose: 50.0 mg/kg/injection, schedule: Q01DX005 (ip), vehicle: saline) is reported as 108 % of control, the T/C (dose: 100.0 mg/kg/injection, schedule: Q01DX005 (ip), vehicle: saline) is reported as 105 % of control and the T/C (dose: 200.0 mg/kg/injection, schedule: Q01DX005 (ip), vehicle: saline) is reported as 104 % of control.
With `C[N+]1(C)CCC(=O)CC1` the T/C [15] was 109 % of control, the T/C [6] was 100 % of control and the T/C [7] was 104 % of control.
In the case of `CSc1nc(N(C)C)c2cnn(C3CCCCO3)c2n1` (configuration not stated), the T/C (dose: 100.0 mg/kg/injection, schedule: Q04DX002 (ip), vehicle: saline with Tween-80) is reported as 97 % of control, the T/C (dose: 200.0 mg/kg/injection, schedule: Q04DX002 (ip), vehicle: saline with Tween-80) is reported as 100 % of control and the T/C (dose: 400.0 mg/kg/injection, schedule: Q04DX002 (ip), vehicle: saline with Tween-80) is reported as 100 % of control.
In the case of `N#CC(C(=O)C(=O)Nc1ccc(Cl)cc1Cl)c1c(Cl)cccc1Cl` (configuration not stated), the T/C [16] is reported as 100 % of control and the T/C [17] is reported as 101 % of control.
In the case of `COc1cc(-c2cc(=O)c3c(O)cc(O)cc3o2)cc(OC)c1O`, the T/C (dose: 5.0 mg/kg/injection, schedule: Q01DX009 (ip), vehicle: Klucel (hydroxypropylcellulose) (HPC)) is reported as 100 % of control, the T/C (dose: 10.0 mg/kg/injection, schedule: Q01DX009 (ip), vehicle: Klucel (hydroxypropylcellulose) (HPC)) is reported as 98 % of control and the T/C (dose: 20.0 mg/kg/injection, schedule: Q01DX009 (ip), vehicle: Klucel (hydroxypropylcellulose) (HPC)) is reported as 100 % of control. For the same compound, the T/C (dose: 40.0 mg/kg/injection, schedule: Q01DX009 (ip), vehicle: Klucel (hydroxypropylcellulose) (HPC)) was 90 % of control.
In the case of `C=C(C)C(=O)OCCN(CC)CC`, the T/C [9] is reported as 100 % of control, the T/C [10] is reported as 99 % of control and the T/C [11] is reported as 100 % of control.
In the case of `O=C(c1cccs1)C1SC(C(=O)c2cccs2)C2(O)c3cccc4cccc(c34)C12O` (configuration not stated), the T/C (dose: 7.5 mg/kg/injection, schedule: Q01DX009 (ip), vehicle: Klucel (hydroxypropylcellulose) (HPC)) is reported as 100 % of control.
In the case of `COc1ccc2c(c1)nc1c([n+]2/N=C(\[O-])CCN(C)C)-c2cccc3cccc-1c23`, the T/C (dose: 50.0 mg/kg/injection, schedule: Q01DX009 (ip), vehicle: Klucel (hydroxypropylcellulose) (HPC)) is reported as 110 % of control, the T/C [4] is reported as 111 % of control and the T/C [5] is reported as 116 % of control.
With `O=[N+]([O-])c1cc2cc(Cl)c3ccccc3c2o1` the T/C (dose: 50.0 mg/kg/injection, schedule: Q01DX005 (ip), vehicle: Klucel (hydroxypropylcellulose) (HPC)) was 100 % of control, the T/C (dose: 100.0 mg/kg/injection, schedule: Q01DX005 (ip), vehicle: Klucel (hydroxypropylcellulose) (HPC)) was 102 % of control and the T/C (dose: 200.0 mg/kg/injection, schedule: Q01DX005 (ip), vehicle: Klucel (hydroxypropylcellulose) (HPC)) was 102 % of control.
In the case of `Brc1cnn(Cn2cc(Br)cn2)c1`, the T/C [18] is reported as 102 % of control, the T/C [19] is reported as 102 % of control and the T/C (dose: 240.0 mg/kg/injection, schedule: Q01DX005 (ip), vehicle: Klucel (hydroxypropylcellulose) (HPC)) is reported as 99 % of control.
With `CCCCCCCCCCCCCCCCCCOC(=O)C(N)CCCCN` (configuration not stated) the T/C [1] was 96 % of control, the T/C [2] was 110 % of control and the T/C [3] was 109 % of control and 111 % of control.
With `CCC(C)(S)CN` (configuration not stated) the T/C (dose: 100.0 mg/kg/injection, schedule: Q01DX001 (ip), vehicle: saline) was 90 % of control, the T/C (dose: 200.0 mg/kg/injection, schedule: Q01DX001 (ip), vehicle: saline) was 90 % of control and the T/C (dose: 400.0 mg/kg/injection, schedule: Q01DX001 (ip), vehicle: saline) was 92 % of control.
`COC(=O)c1nc(N)nc(C(=O)OC)c1C(=O)c1ccccn1` was tested, and the T/C [18] was 101 % of control and the T/C [19] was 99 % of control.
